Like-named read-outs stand apart in the source and are kept apart here.

In one data set the test system is human neutrophils (hPMN). Briefly: Ca2+ mobilization in human neutrophils (hPMN). The data set is classed as cell-based. Conditions: for efficacy (%) hPMN: % of the response induced by 5 nM fMLF; for EC50: Homo sapiens, Neutrophil. The source says: Blood was collected from healthy donors in accordance with a protocol approved by the Institutional Review Board at Montana State University. Neutrophils were purified from the blood using dextran sedimentation, followed by Histopaque 1077 gradient separation and hypotonic lysis of red blood cells. Isolated neutrophils were washed twice and resuspended in HBSS^‐. Neutrophil preparations were routinely >95% pure, as determined by light microscopy, and >98% viable, as determined by trypan blue exclusion.
Changes in intracellular Ca^2+ were measured with a FlexStation II scanning fluorometer (Molecular Devices). The cells, suspended in Hank's balanced salt solution without Ca^2+ and Mg^2+ but with 10 mM HEPES (HBSS^‐), were loaded with 1.25 μg/ml Fluo‐4 a.m. dye and incubated for 30 min in the dark at 37°C. After dye loading, the cells were washed with HBSS^‐ containing 10 mM HEPES, resuspended in HBSS^+ containing Ca^2+, Mg^2+, and 10 mM HEPES (HBSS^+), and aliquoted into the wells of flat‐bottom, half‐area‐well black microtiter plates (2 × 10^5 cells/well). For evaluation of direct agonist activity, compounds of interest were added from a source plate containing dilutions of test compounds in HBSS^+, and changes in fluorescence were monitored (λex = 485 nm, λem = 538 nm) every 5 s for 240 s at room temperature after automated addition of compounds. Maximum change in fluorescence during the first 3 min, expressed in arbitrary units over baseline, was used to determine a response. […] Curve fitting (5–6 points) and calculation of median effective […] were performed by nonlinear regression analysis of the dose–response curves generated using Prism 7 (GraphPad Software, Inc.).
For orientation: A change in cytosolic calcium serves as a functional read-out for many receptors and channels.

In a further data set the target is T1, FPR2 (Homo sapiens, UniProt P25090).
T1 construct: expressed in transfected cells
T1 sequence (P25090 1-351): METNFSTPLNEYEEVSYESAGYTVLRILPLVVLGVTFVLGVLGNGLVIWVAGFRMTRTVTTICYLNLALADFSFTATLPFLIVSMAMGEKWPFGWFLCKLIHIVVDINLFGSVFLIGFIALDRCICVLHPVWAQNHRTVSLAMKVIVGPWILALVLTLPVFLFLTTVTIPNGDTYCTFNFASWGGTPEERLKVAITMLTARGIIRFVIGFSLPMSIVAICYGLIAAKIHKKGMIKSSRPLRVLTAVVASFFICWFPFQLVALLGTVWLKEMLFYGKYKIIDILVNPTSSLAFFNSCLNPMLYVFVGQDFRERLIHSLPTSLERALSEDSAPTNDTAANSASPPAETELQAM
Nature of the data set: Ca2+ mobilization in FPR2-transfected HL60 cells. Particulars: for efficacy (%) HL60‐FPR2: % of the response induced by 5 nM WKYMVm. The data set is classed as cell-based.

The target in the next data set is T2, FPR1 (Homo sapiens, UniProt P21462).
T2 construct: expressed in transfected cells
T2 sequence (P21462 1-350): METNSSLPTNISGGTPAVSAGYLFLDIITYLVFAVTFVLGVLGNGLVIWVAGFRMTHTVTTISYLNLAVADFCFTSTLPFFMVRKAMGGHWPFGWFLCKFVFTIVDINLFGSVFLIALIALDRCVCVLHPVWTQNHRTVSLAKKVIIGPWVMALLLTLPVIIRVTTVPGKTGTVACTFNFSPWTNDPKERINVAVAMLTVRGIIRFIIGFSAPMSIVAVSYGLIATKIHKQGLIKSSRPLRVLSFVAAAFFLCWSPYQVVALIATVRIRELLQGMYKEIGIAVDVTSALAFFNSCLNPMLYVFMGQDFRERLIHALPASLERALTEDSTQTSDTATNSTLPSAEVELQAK
Nature of the data set: Ca2+ mobilization in FPR1-transfected HL60 cells. The class given is cell-based. Conditions: for efficacy (%) HL60‐FPR1: % of the response induced by 5 nM fMLF.

In data set [1] the test system is rat model of rheumatoid arthritis. On the set-up: method as in Crocetti et al., 2020. Conditions: ref Crocetti et al., 2020; cited from earlier work.
The next data set deals with FPR3. Conditions: Figure 2, ref Vergelli et al., cited from earlier work.
The next data set concerns healthy human subject. On the set-up: method as in Lind et al., 2019; Stalder et al., 2017. Conditions: phase I clinical trial, ref Lind et al., 2019, Stalder et al., 2017; cited from earlier work.
Data set [2] has as its system animal models of rheumatoid arthritis. On the set-up: method as in Burli et al., 2006; Odobasic et al., 2018. Particulars: ref Burli et al., 2006; Odobasic et al., 2018; cited from earlier work.
[3] abbreviates: Ca2+ mobilization, mean of three independent experiments, N.A. = no activity (limits efficacy <20% and EC50 < 50 µM).

Experimental for FPR1: (§1) Although stable cell lines are cultured under G418 selection pressure, G418 may affect some assays, so it was removed in the last round of culture before assays were performed.
(§2) Changes in intracellular Ca^2+ were measured with a FlexStation II scanning fluorometer (Molecular Devices). The cells, suspended in Hank's balanced salt solution without Ca^2+ and Mg^2+ but with 10 mM HEPES (HBSS^‐), were loaded with 1.25 μg/ml Fluo‐4 a.m. dye and incubated for 30 min in the dark at 37°C. After dye loading, the cells were washed with HBSS^‐ containing 10 mM HEPES, resuspended in HBSS^+ containing Ca^2+, Mg^2+, and 10 mM HEPES (HBSS^+), and aliquoted into the wells of flat‐bottom, half‐area‐well black microtiter plates (2 × 10^5 cells/well). For evaluation of direct agonist activity, compounds of interest were added from a source plate containing dilutions of test compounds in HBSS^+, and changes in fluorescence were monitored (λex = 485 nm, λem = 538 nm) every 5 s for 240 s at room temperature after automated addition of compounds. Maximum change in fluorescence during the first 3 min, expressed in arbitrary units over baseline, was used to determine a response. […] Curve fitting (5–6 points) and calculation of median effective inhibitory concentrations (IC50) were performed by nonlinear regression analysis of the dose–response curves generated using Prism 7 (GraphPad Software, Inc.).
Experimental for FPR2: as §1, §2

In general, melting point refers to the temperature of the solid-liquid transition. Turning to `COc1cccc(Nc2c(C)c(-c3ccccc3)nn2CC(=O)Nc2ccc(Br)cc2)c1` [Compound 4c, N‐(4‐Bromophenyl)‐2‐[5‐(3‐methoxyphenylamino)‐4‐methyl‐3‐phenylpyrazol‐1‐yl]acetamide], the melting point is > 300 °C (dec.).

`COc1cccc(Nc2cn(-c3ccccc3)n(CC(=O)Nc3ccc(Br)cc3)c2=O)c1` [Compound 10, N‐(4‐Bromophenyl)‐2‐[4‐(3‐methoxyphenylamino)‐5‐oxo‐2‐phenyl‐2,5‐dihydropyrazol‐1‐yl]acetamide]: the melting point was 163 to 166 °C.

The EC50 is the midpoint of the concentration-response curve. With `COc1cccc(Nc2ccnn2CC(=O)Nc2ccc(Br)cc2)c1` [Compound 4e, N‐(4‐Bromophenyl)‐2‐[5‐(3‐methoxyphenylamino)‐pyrazol‐1‐yl]acetamide], the melting point is 140 to 143 °C. For the same compound, in the data set with human neutrophils (hPMN), the “efficacy (%) hPMN” value is reported as 75% and the midpoint of the response, the EC50, lay at 8.2 ± 2.6 µM. On FPR2, the EC50 amounted to 23.4 ± 5.3 µM and the “efficacy (%) HL60‐FPR2” value was found to be 60%. Besides, at FPR1, the EC50 was 13.2 ± 2.6 µM and the “efficacy (%) HL60‐FPR1” value was 85%.

For `CCCCCCn1c(=O)c(-c2cccc(OC)c2)cn1-c1ccccc1` [Compound 13f, Hexyl‐4‐(3‐methoxyphenyl)‐1‐phenyl‐1,2‐dihydropyrazol‐3‐one], in the data set with human neutrophils (hPMN), the “efficacy (%) hPMN” value was 55% and a half-maximal effect (EC50) was put at 13.8 ± 4.2 µM. Further, on FPR2, a half-maximal effect (EC50) was put at 10.5 ± 3.5 µM and the “efficacy (%) HL60‐FPR2” value was 90%. On FPR1, the EC50 was determined as 20.2 ± 5.4 µM and the “efficacy (%) HL60‐FPR1” value is given as 35%.

`O=C(Cn1c(=O)ccn1-c1ccccc1)Nc1ccc(Br)cc1` [Compound 9a, N‐(4‐Bromophenyl)‐2‐(5‐oxo‐2‐phenyl‐2,5‐dihydropyrazol‐1‐yl)acetamide] came in with a melting point of 136 to 139 °C.

In the case of `COc1cccc(-c2nn(CC(=O)Nc3ccc(Br)cc3)c(C)c2C#N)c1` [Compound 7a, N‐(4‐Bromophenyl)‐2‐[4‐cyano‐3‐(3‐methoxyphenyl)‐5‐methylpyrazol‐1‐yl]acetamide], in the data set with human neutrophils (hPMN), the “efficacy (%) hPMN” value was determined as 80% and the EC50 turned out to be 6.5 ± 1.6 µM. In addition, at FPR2, a half-maximal effect (EC50) was put at 6.1 ± 2.2 µM and the “efficacy (%) HL60‐FPR2” value is given as 75%. Further, the “preference for FPR2” value at FPR2 (FPR2 over FPR1, from EC50 values) was “threefold”. Also, at FPR1, the EC50 came out at 18.4 ± 4.3 µM and the “efficacy (%) HL60‐FPR1” value stood at 75%.

For `COc1cccc(Cc2c(C)c(C)nn(CC(=O)Nc3ccc(Br)cc3)c2=O)c1` [EC3, reference compound], in the data set with human neutrophils (hPMN), the “efficacy (%) hPMN” value came out at 150%. Besides, the “efficacy (%) HL60‐FPR2” value at FPR2 is given as 80%. Moreover, the values for the EC50 on FPR2 (setting [3]), at FPR1 (setting [3]) and with FPR3 (2017) were 0.043 ± 0.0016 µM, 0.019 ± 0.005 µM and 0.04 µM, respectively. In addition, on FPR1, the “efficacy (%) HL60‐FPR1” value is reported as 85%. In data set [1], the “anti‐inflammatory activity in vivo” value is given as “anti‐inflammatory activity”.

In the case of `Nc1cn(-c2ccccc2)n(CC(=O)Nc2ccc(Br)cc2)c1=O` [Compound 9b, 2‐(4‐Amino‐5‐oxo‐2‐phenyl‐2,5‐dihydropyrazol‐1‐yl)‐N‐(4‐bromophenyl)acetamide], the melting point was in the range of 160 to 163 °C. Moreover, in the data set with human neutrophils (hPMN) (Ca2+ mobilization in human neutrophils, mean of three independent experiments, N.A. = no activity (limits efficacy <20% and EC50 < 50 µM)), the “EC50 (µM) hPMN” value is “inactive”. Also, at FPR2, the EC50 turned out to be 23.1 ± 6.3 µM and the “efficacy (%) HL60‐FPR2” value is listed as 50%.

`Cc1cc(OCC(=O)Nc2ccc(Br)cc2)n[nH]1` [Compound 15, N‐(4‐bromophenyl)‐2‐[(5‐methyl‐1H‐pyrazol‐3‐yl)oxy]acetamide]: in the data set with human neutrophils (hPMN), the “efficacy (%) hPMN” value is reported as 55% and the EC50 is 18.6 ± 4.7 µM. Also, on FPR2, the EC50 turned out to be 25.9 ± 6.4 µM and the “efficacy (%) HL60‐FPR2” value is listed as 60%. Besides, at FPR1, the EC50 was determined as 9.8 ± 2.7 µM and the “efficacy (%) HL60‐FPR1” value is reported as 60%.

On to `Cc1cccc(-c2oc(C)nc2C(=O)Nc2cnn(Cc3nc(C(C)(F)F)co3)n2)c1` [Act‐389949], for which the safety and tolerability result with healthy human subject was “safe and well tolerated”.

`COc1ccc(Nc2c(C#N)cnn2CC(=O)Nc2ccc(Br)cc2)cc1` [Compound 4b, N‐(4‐Bromophenyl)‐2‐[4‐cyano‐5‐(4‐methoxyphenylamino)pyrazol‐1‐yl]acetamide] came in with a melting point of 136 to 139 °C.

Consider `COc1cccc(-c2cc(C#N)c(=O)n(CC(=O)Nc3ccc(Br)cc3)c2C)c1` [Compound 2a], for which the “anti‐inflammatory activity in vivo” value in data set [1] is given as “anti‐inflammatory activity”.

For the compound `COc1ccc(Nc2c(C)c(-c3ccccc3)nn2CC(=O)Nc2ccc(Br)cc2)cc1` [Compound 4d, N‐(4‐Bromophenyl)‐2‐[5‐(4‐methoxyphenylamino)‐4‐methyl‐3‐phenylpyrazol‐1‐yl]acetamide], the melting point is 212 to 214 °C.

For `CC(C)c1c(NC(=O)Nc2ccc(Cl)cc2)c(=O)n(-c2ccccc2)n1C` [Cpd43], the “profile in animal models of rheumatoid arthritis” value in data set [2] is reported as “excellent profile”.

Regarding `COc1cccc(Nc2c(C(C)=O)c(C)nn(CC(=O)Nc3ccc(Br)cc3)c2=O)c1` [EC10, reference compound], the “efficacy (%) hPMN” value with human neutrophils (hPMN) worked out at 150%. Further, the EC50 was 0.036 ± 0.007 µM with human neutrophils (hPMN), 0.17 ± 0.038 µM at FPR2 (setting [3]), 0.045 ± 0.016 µM on FPR1 (setting [3]) and 0.21 µM in the data set with FPR3 (2016). For the same compound, at FPR2, the “efficacy (%) HL60‐FPR2” value amounted to 60%. Further, the “efficacy (%) HL60‐FPR1” value on FPR1 is 185%. The “anti‐inflammatory activity in vivo” value in data set [1] is “anti‐inflammatory activity”.

The values are drawn from article PMC8446315, “Synthesis, biological evaluation, molecular modeling, and structural analysis of new pyrazole and pyrazolone derivatives as N‐formyl peptide receptors agonists” (Chemical Biology & Drug Design, 2021).
